The subject of one assay is SU86.86 cells. Briefly: qPCR, immunoblotting and flow cytometry of PD-L1 and MHC-I pathway expression in SU86.86 cells. It is filed as cell-based, human. To be noted: immunoblotting, mifepristone 20 μM, 48 h with MG132 (10 μM, 6 h) or chloroquine (20 μM, 4 h). On the procedure: (See Bardeesy, N., et al. supra). The human PDAC cell lines SU86.86 ([…]), SW1990 ([…]), BXPC-3 ([…]), Miapaca-2 ([…]), Capan-1 ([…]), ASPC-1 ([…]), Hs766T ([…]), Colo357/FG ([…]), L3.6PL ([…]), Panc28 ([…]), Capan-2 ([…]), CF-Pac-1 ([…]), Panc3 (sex unknown), Panc1 ([…]), Panc48 (sex unknown), and HPAC ([…]) were from Mien-Chie Hung's lab stock. […] The BXPC-3, Miapaca-2, Capan-1, ASPC-1, Colo357/FG, L3.6PL, Panc28, Capan-2, CF-Pac-1, Panc3, Panc1, Panc48, and HPAC cell lines were cultured in DMEM/F-12 (Corning, 10-092-CV) supplemented with 10% FBS and 1% penicillin/streptomycin. Cells were grown in a humidified incubator with 5% CO2 at 37° C., and low-passage stocks were maintained in a centralized lab cell bank. Short tandem repeat profiling and mycoplasma tests were done by the Cytogenetics and Cell Authentication Core at MD Anderson Cancer Center.
Membranes were blocked with 10% non-fat milk in TBST and incubated with the primary antibody at 4° C. overnight, followed by incubation with the secondary antibody conjugated with horseradish peroxidase (HRP).
On the technique in general: Real-time PCR tracks product formation cycle by cycle.

For assay [1], the system named is human PD-L1, HLA-B, HLA-C, and B2M gene promoter regions. Description: Luciferase reporter assay in SU86.86 cells. It is filed as cell-based. To be noted: IFNγ 10 ng ml^−1, 8 h, abrogated by knockdown of GR. The text has this:
(§1) Human PD-L1 promoter-reporter constructs (Coelho, M. A., et al. Oncogenic RAS Signaling Promotes Tumo Immunoresistance by Stabilizing PD-L1 mRNA. Immunity 47, 1083-1099 e1086 (2017)) were purchased from Addgene (Addgene numbers: 107002, 107003, 107004, 107006, and 107007). The GR activity reporter plasmid was purchased from Qiagen (ID: C82DB0D7-3D10-4B1C-A358-411558D2DE01). The promoter regions of human HLA-B, HLA-C, and B2M were PCR-amplified from genomic DNA of the SU86.86 cell line (PCR primers are listed as SEQ ID NOs.: 1-6. The linearized pGL3-basic plasmid was amplified by PCR (Forward primer SEQ ID NO: 7; reverse primer SEQ ID NO: 8), and PCR products of promoter regions were ligated to linearized pGL3-basic using the In-Fusion HD Cloning Kit (Takara Bio, 638909).
(§2) The firefly luciferase reporter containing the human gene promoter was co-transfected with a Renilla luciferase vector (for normalization) into SU86.86 cells using jetPRIME transfection reagent (VWR, 89129-922). […] Firefly and Renilla luciferase activities were measured using a Dual-Luciferase Reporter Assay (Promega, E1910) on a microplate reader according to the manufacturer's protocol. Firefly luciferase activity was normalized to Renilla luciferase activity.
(In general: In a reporter assay the amount or activity of a reporter protein is the signal.)

Assay [2] deals with human PD-L1 gene promoter regions. Description: Luciferase reporter assay in SW1990 cells. The following applies: IFNγ 10 ng ml^−1, 8 h, abrogated by knockdown of GR. It is filed as cell-based.
From the text: as §1, §2

Data on three molecules can be found in patent publication US20250032506A1, “GLUCOCORTICOID RECEPTOR BLOCKADE WITH MIFEPRISTONE TO SENSITIZE PANCREATIC CANCER TO IMMUNOTHERAPY” (BOARD OF REGENTS, THE UNIVERSITY OF TEXAS SYSTEM, priority 2021, published 2025).

Residues, ends and D or L forms follow the SMILES beside them. *: point of attachment. Cbz = O=C(OCc1ccccc1)*

In the case of `CC(C)C[C@@H](C=O)NC(=O)[C@H](CC(C)C)NC(=O)[C@H](CC(C)C)NC(=O)OCc1ccccc1` [MG132] (Cbz-Leu-Leu-Leu-aldehyde), the “effect on mifepristone-mediated PD-L1 downregulation and MHC-I upregulation” value with SU86.86 cells is listed as “did not affect”.

Consider `CCN(CC)CCCC(C)Nc1ccnc2cc(Cl)ccc12` (stereo not shown) [chloroquine], for which the “effect on mifepristone-mediated PD-L1 downregulation and MHC-I upregulation” value in the assay with SU86.86 cells is reported as “did not affect”.

B1: IFNγ: IFNγ (known to activate PD-L1 transcription) (protein, UniProt P01579 24-161, looked up)
Interferon gamma: QDPYVKEAENLKKYFNAGHSDVADNGTLFLGILKNWKEESDRKIMQSQIVSFYFKLFKNFKDDQSIQKSVETIKEDMNVKFFNSNKKKRDDFEKLTNYSVTDLNVQRKAIHELIQVMAELSPAAKTGKRKRSQMLFRG
B1: the “activity of the PD-L1 promoter reporters” value in assay [1] and in assay [2] was “induced” in each case.
